Values joined by “and” are separate entries in the source; they are usually repeats but may differ in a detail not shown here. Identical values can stand only once.
How the values were obtained:
[1] = tested on: blood uric acid; assay: Improvement in hyperuricemia: blood uric acid level in patients given troglitazone; format: in vivo, human
Experimental: The level of uric acid in the blood of a patient may be measured in a conventional manner. Specifically, blood is collected before and after the administration, for a predetermined period, of a medicament to a patient suffering from hyperuricemia and then the blood uric acid level is measured, for example, by the uricase catalase method [Kageyama: Clin. Chim. Acta., 31, 421-426 (1971)]. A measuring kit employing the above method is commercially available (“Uricolor 400”, trade name; product of Ono Pharmaceutical Co., Ltd.)
4 adult human patients who had suffered from diabetes and hyperuricemia and whose blood uric acid level was not less than 7.0 mg/dl, were administered orally 200 mg of troglitazone twice a day (in the morning and in the evening). This administration was continued for 4 weeks. Both after and before administration, blood was collected and the blood uric acid level was measured.

[2] = tested on: ddY mice (male); format: in vivo; conditions: 300 mg/kg orally, three male ddY mice, observed for 5 days
Experimental: The acute toxicity of troglitazone was measured in a conventional manner. Specifically, 300 mg/kg of troglitazone was administered orally to three ddY mice (male), which were then observed for 5 days.

[3] = tested on: uric acid; conditions: clinical examination values, Rinsho Iyaku 9, Suppl.3, 14 (1993), cited from earlier work

Cc1c(C)c2c(c(C)c1O)CCC(C)(COc1ccc(CC3SC(=O)NC3=O)cc1)O2 (stereo not drawn) [troglitazone, 5-[4-(6-hydroxy-2,5,7,8-tetramethylchroman-2-ylmethoxy)benzyl]thiazolidine-2,4-dione]
Blood uric acid level, Week 4 ([1]; adult human patients with diabetes and hyperuricemia, 200 mg orally twice a day for 4 weeks): 5.2 mg/dL and 5.3 mg/dL and 5.6 mg/dL
Blood uric acid level, Week 0 ([1]; adult human patients with diabetes and hyperuricemia, before administration (baseline)): 7.2 mg/dL and 7.6 mg/dL and 7.9 mg/dL
blood uric acid level after administration (summary of the Table) ([1]; patients with blood uric acid 7.0 mg/dl or greater, 200 mg orally twice a day, 4 weeks, normal range): ≤ 6.0 mg/dL
survival (acute toxicity) [2]: All of them survived
uric acid level before administration ([3]; baseline): 4.7±1.7
uric acid level after administration [3]: 4.4±1.4

— patent US6353009B1, “Method for the treatment and prevention of hyperuricemia” (Sankyo Company, Limited, priority 1997, dated 2002)
